The SangsterLogP compilation

Assay: method code SF, from DOI: 10.2478/s11696-010-0084-9

| logP | Compound |
| --- | --- |
| 1.74 | O=C(NCc1cccnc1)c1ccc(Cl)cc1O |
| 2.16 | O=C(NCc1ccccn1)c1ccc(Cl)cc1O |
| 3.64 | O=C(NCc1ccccc1)c1cc(Cl)cc(Cl)c1O |
| 2.3 | O=C(NCc1cccnc1)c1cc(Cl)cc(Cl)c1O |
| 1.67 | Cc1ccc(C(=O)NCc2cccnc2)c(O)c1 |
| 2.01 | O=C(NCc1cccnc1)c1cc(Br)ccc1O |
| 1.34 | O=C(NCc1cccnc1)c1cc(F)ccc1O |
| 1.48 | COc1cccc(C(=O)NCc2ccccn2)c1O |
| 3.08 | O=C(NCc1ccccc1)c1cc(Cl)ccc1O |
| 1.67 | Cc1cccc(C(=O)NCc2cccnc2)c1O |
| 2.52 | O=C(NCc1ccccc1)c1ccccc1O |
| 3.26 | O=C(NCc1ccccn1)c1cc(Br)cc(Br)c1O |
| 2.43 | O=C(NCc1ccccn1)c1cc(Br)ccc1O |
| 1.74 | O=C(NCc1cccnc1)c1cc(Cl)ccc1O |
| 2.84 | O=C(NCc1cccnc1)c1cc(Br)cc(Br)c1O |
| 2.16 | O=C(NCc1ccccn1)c1cc(Cl)ccc1O |
| 3.08 | O=C(NCc1ccccc1)c1ccc(Cl)cc1O |
| 1.06 | COc1ccc(C(=O)NCc2cccnc2)c(O)c1 |
| 2.09 | Cc1cccc(C(=O)NCc2ccccn2)c1O |
| 2.39 | COc1cccc(C(=O)NCc2ccccc2)c1O |
| 2.09 | Cc1ccc(C(=O)NCc2ccccn2)c(O)c1 |
| 1.18 | O=C(NCc1cccnc1)c1ccccc1O |
| 1.06 | COc1cccc(C(=O)NCc2cccnc2)c1O |
| 1.76 | O=C(NCc1ccccn1)c1cc(F)ccc1O |
| 3.53 | O=C(NCc1ccccc1)c1cc(Br)ccc1O |
| 4.18 | O=C(NCc1ccccc1)c1cc(Br)cc(Br)c1O |
